Tested on: not given
Assay: not given
Conditions: not given

Row | melting point | SMILES
1 | 134 to 135 °C | CCS(=O)(=O)c1cc(OCCCCCCc2cccc(OCCCC(=O)O)c2CCC(=O)O)cc(-c2ccc3c(c2)OCO3)c1 [Example 47, 4-[3-[6-(3-Benzo[1,3]dioxol-5-yl-5-ethanesulfonyl-phenoxy)-hexyl]-2-(2-carboxy-ethyl)-phenoxy]-butyric Acid]

Tested on: BLT1 and BLT2 receptors (HL-60 cells)
Assay: Ca2+ flux assay for LTB4 antagonist assay (HL-60 FLIPR)
Format: cell-based, Human
Conditions: Retinoic acid induced HL-60 cells, inhibition of LTB4-induced Ca2+ flux, 30 min preincubation; read-out: LTB4 antagonism (HL-60 FLIPR) IC50
Protocol: Ca^2+ Flux Assay for LTB4 Antagonist Assay
Human leukemia HL-60 cells endogenously expressing BLT1 and BLT2 receptors were cultured in RPMI-1640 medium supplemented with 20% fetal bovine serum, 2 mM glutamine, 100 U/mL penicillin and 100 ug/mL streptomycin.
Seventy two hours prior to experiment cells are counted using ViaCount reagent, centrifuged and resuspended at 2.0×10^5 cells/mL density with the complete growth media containing 1 μM Retinoic Acid (Sigma).
On a day of the experiment loading buffer (Calcium-3 Assay Kit, Molecular Devices) was prepared by dissolving the contents of one vial (Express Kit) into 500 mL Hank's Balanced Salt Solution containing 20 mM HEPES and 5 mM probenecid. Equal volume of the loading buffer was mixed with the replacement buffer (Hank's Balanced Salt Solution containing 20 mM HEPES, 0.05% BSA and 5 mM probenecid). Retinoic Acid induced HL-60 cells were counted using ViaCount reagent, centrifuged and resuspended at 2.0×10^6 cells/mL density with the loading buffer/replacement buffer, dispensed into 384 well black/clear microplates (Falcon)(25 μL/well) and placed in a 37° C./5% CO2 incubator for 1 hour.
During the incubation, test compounds were prepared at 6× the desired concentration in HBSS/20 mM HEPES/0.05% BSA as well as LTB4 (Biomol) was prepared at 2.2× concentration in HBSS/20 mM HEPES/0.5% BSA buffer.
After the incubation, both the cell and compound plates were brought to the FLIPR and 5 μL of the diluted compounds were transferred to the cell plates by the FLIPR. Plates were then incubated for 30 min at room temperature. After the ½ hour incubation, plates were returned to the FLIPR and 25 μL of 2.2×LTB4 was added to the cell plates. During the assay, fluorescence readings were taken simultaneously from all 384 wells of the cell plate every 1.5 seconds. Five readings were taken to establish a stable baseline, then 25 μL (LTB4) of sample was rapidly and simultaneously added to each well of the cell plate. The fluorescence was continuously monitored before, during and after sample addition for a total elapsed time of 100 seconds. Responses (increase in peak fluorescence) in each well following agonist addition was determined. The initial fluorescence reading from each well, prior to ligand stimulation, was used a zero baseline value for the data from that well. The responses are expressed as % inhibition of the neutral control (neural control: wells that received buffer plus DMSO but no test compound).

Row | SMILES | IC50
2 | CS(=O)(=O)c1cc(OCCCCCCc2cccc(OCCCC(=O)O)c2CCC(=O)O)cc(-c2ccc(O)cc2)c1 [Example 5, 4-{2-(2-Carboxy-ethyl)-3-[6-(4′-hydroxy-5-methanesulfonyl-biphenyl-3-yloxy)-hexyl]-phenoxy}-butyric Acid] | 1.22 nM
3 | CCc1ccc(-c2cc(OCCCCCCc3cccc(OCCCC(=O)O)c3CCC(=O)O)cc(S(C)(=O)=O)c2)cc1 [Example 13, 4-{2-(2-Carboxy-ethyl)-3-[6-(4′-ethyl-5-methanesulfonyl-biphenyl-3-yloxy)-hexyl]-phenoxy}-butyric Acid] | 0.91 nM
4 | CS(=O)(=O)c1cc(OCCCCCCc2cccc(OCCCC(=O)O)c2CCC(=O)O)cc(-c2cscn2)c1 [Example 21, 4-{2-(2-Carboxy-ethyl)-3-[6-(3-methanesulfonyl-5-thiazol-4-yl-phenoxy)-hexyl]-phenoxy}-butyric Acid] | 261 nM
5 | CS(=O)(=O)c1cc(OCCCCCCc2cccc(OCCCC(=O)O)c2CCC(=O)O)cc(Oc2ccc(Cl)cc2)c1 [Example 23, 4-(2-(2-Carboxy-ethyl)-3-{6-[3-(4-chloro-phenoxy)-5-methanesulfonyl-phenoxy]-hexyl}-phenoxy)-butyric Acid] | 361 nM
6 | CS(=O)(=O)c1cc(Nc2ccccc2)cc(OCCCCCCc2cccc(OCCCC(=O)O)c2CCC(=O)O)c1 [Example 26, 4-{2-(2-Carboxy-ethyl)-3-[6-(3-methanesulfonyl-5-phenylamino-phenoxy)-hexyl]-phenoxy}-butyric Acid] | 47.1 nM
7 | CS(=O)(=O)c1cc(OCCCCCCc2cccc(OCCCC(=O)O)c2CCC(=O)O)cc(-c2cccc(F)c2)c1 [Example 27, 4-{2-(2-Carboxy-ethyl)-3-[6-(3′-fluoro-5-methanesulfonyl-biphenyl-3-yloxy)-hexyl]-phenoxy}-butyric Acid] | 0.9 nM
8 | CCS(=O)(=O)c1cc(OCCCCCCc2cccc(OCCCC(=O)O)c2CCC(=O)O)cc(-c2ccc(F)cc2)c1 [Example 51, 4-[2-(2-Carboxy-ethyl)-3-[6-(5-ethanesulfonyl-4′-fluoro-biphenyl-3-yloxy)-hexyl]-phenoxy]-butyric Acid] | 2.8 nM
9 | CCS(=O)(=O)c1cc(OCCCCCCc2cccc(OCCCC(=O)O)c2CCC(=O)O)cc(-c2ccsc2)c1 [Example 52, 4-[2-(2-Carboxy-ethyl)-3-[6-(3-ethanesulfonyl-5-thiophen-3-yl-phenoxy)-hexyl]-phenoxy]-butyric Acid] | 1.04 nM
10 | CCCS(=O)(=O)c1cc(OCCCCCCc2cccc(OCCCC(=O)O)c2CCC(=O)O)cc(-c2ccc(F)cc2)c1 [Example 55, 4-[2-(2-Carboxy-ethyl)-3-[6-(5-(propane-1-sulfonyl)-4′-fluoro-biphenyl-3-yloxy)-hexyl]-phenoxy]-butyric Acid] | 63.8 nM
11 | CC(C)S(=O)(=O)c1cc(OCCCCCCc2cccc(OCCCC(=O)O)c2CCC(=O)O)cc(-c2ccc(F)cc2)c1 [Example 60, 4-[2-(2-Carboxy-ethyl)-3-[6-(5-(propane-2-sulfonyl)-4′-fluoro-biphenyl-3-yloxy)-hexyl]-phenoxy]-butyric Acid] | 15.3 nM

Now those with a lower IC50, led by results:

Row | IC50 | SMILES
12 | 0.47 nM | CS(=O)(=O)c1cc(OCCCCCCc2cccc(OCCCC(=O)O)c2CCC(=O)O)cc(-c2ccc3c(c2)OCCO3)c1 [Example 41, 4-(2-(2-Carboxy-ethyl)-3-{6-[3-(2,3-dihydro-benzo[1,4]dioxin-6-yl)-5-methanesulfonyl-phenoxy]-hexyl}-phenoxy)-butyric Acid]
13 | 0.44 nM | CS(=O)(=O)c1cc(OCCCCCCc2cccc(OCCCC(=O)O)c2CCC(=O)O)cc(-c2ccsc2)c1 [Example 12, 4-{2-(2-Carboxy-ethyl)-3-[6-(3-methanesulfonyl-5-thiophen-3-yl-phenoxy)-hexyl]-phenoxy}-butyric Acid]
14 | 0.38 nM | CS(=O)(=O)c1cc(OCCCCCCc2cccc(OCCCC(=O)O)c2CCC(=O)O)cc(-c2ccc(F)cc2)c1 [Example 8, 4-{2-(2-Carboxy-ethyl)-3-[6-(4′-fluoro-5-methanesulfonyl-biphenyl-3-yloxy)-hexyl]-phenoxy}-butyric Acid]
15 | 0.38 nM | CS(=O)(=O)c1cc(OCCCCCCc2cccc(OCCCC(=O)O)c2CCC(=O)O)cc(-c2ccccc2)c1 [Example 28, 4-{2-(2-Carboxy-ethyl)-3-[6-(5-methanesulfonyl-biphenyl-3-yloxy)-hexyl]-phenoxy}-butyric Acid]
16 | 0.32 nM | Cc1ccc(-c2cc(OCCCCCCc3cccc(OCCCC(=O)O)c3CCC(=O)O)cc(S(C)(=O)=O)c2)cc1F [Example 11, 4-{2-(2-Carboxy-ethyl)-3-[6-(3′-fluoro-5-methanesulfonyl-4′-methyl-biphenyl-3-yloxy)-hexyl]-phenoxy}-butyric Acid]
17 | 0.27 nM | CCS(=O)(=O)c1cc(OCCCCCCc2cccc(OCCCC(=O)O)c2CCC(=O)O)cc(-c2ccc3c(c2)OCO3)c1 [Example 47, 4-[3-[6-(3-Benzo[1,3]dioxol-5-yl-5-ethanesulfonyl-phenoxy)-hexyl]-2-(2-carboxy-ethyl)-phenoxy]-butyric Acid]
18 | 0.24 nM | CS(=O)(=O)c1cc(OCCCCCCc2cccc(OCCCC(=O)O)c2CCC(=O)O)cc(-c2ccc3c(c2)OC(F)(F)O3)c1 [Example 46, 4-(2-(2-Carboxy-ethyl)-3-{6-[3-(2,2-difluoro-benzo[1,3]dioxol-5-yl)-5-methanesulfonyl-phenoxy]-hexyl}-phenoxy)-butyric Acid]
19 | 0.2 nM | CS(=O)(=O)c1cc(OCCCCCCc2cccc(OCCCC(=O)O)c2CCC(=O)O)cc(-c2ccc3scnc3c2)c1 [Example 45, 4-[3-[6-(3-Benzothiazol-5-yl-5-methanesulfonyl-phenoxy)-hexyl]-2-(2-carboxy-ethyl)-phenoxy]-butyric Acid]
20 | 0.12 nM | COc1ccc(-c2cc(OCCCCCCc3cccc(OCCCC(=O)O)c3CCC(=O)O)cc(S(C)(=O)=O)c2)cc1 [Example 29, 4-{2-(2-Carboxy-ethyl)-3-[6-(5-methanesulfonyl-4′-methoxy-biphenyl-3-yloxy)-hexyl]-phenoxy}-butyric Acid]
21 | 0.09 nM | CS(=O)(=O)c1cc(OCCCCCCc2cccc(OCCCC(=O)O)c2CCC(=O)O)cc(-c2ccc3c(c2)OCO3)c1 [Example 40, 4-[3-[6-(3-Benzo[1,3]dioxol-5-yl-5-methanesulfonyl-phenoxy)-hexyl]-2-(2-carboxy-ethyl)-phenoxy]-butyric Acid]

Reference: US8093253B2, “Leukotriene B4 inhibitors” (Hoffmann-La Roche Inc., priority 2008, dated 2012)
